We go through three molecules from patent US20060058307A1, “Combination of an atp-competitive inhibitor of bcr/abl kinase activity and a tyrphostin analog” (priority 2001, published 2006).

Read-outs that look alike come from different tables or passages of the source.

For data set [1] the following is noted: animal testing, in vivo; unpublished observations of Stinson, Narayanan and Sausville; adaphostin compared with AG957; cited from earlier work.
The test system of the next data set is p210^bcr/abl. The following applies: immune complex kinase assays; cited from earlier work.
Data set [2] relates to K562 cells. Nature of the data set: Clonogenic assay (colony formation in 0.3% agar) of K562 cells. The data set is classed as cell-based, human. Conditions: 24 h. The protocol:
At the completion of the incubation, cells are washed, plated in 0.3% agar and incubated for 10-14 days before colony formation is assessed. For results see under (a) in Table (A). […] At the completion of the incubation, colony formation ability is assessed as described in the last paragraph.

Data set [3] relates to K562 cells. Nature of the data set: Morphologic changes associated with apoptosis (Hoechst 33258 staining) in K562 cells. The class given is cell-based, human. Conditions: 24 h. The method, then: For morphological analysis, cells are fixed in 3:1 (v:v) methanol:acetic acid, stained with 1 μg/ml Hoechst 33258 in 50% (v:v) glycerol and examined under epi-illumination using a Zeiss Axioplan microscope. Two hundred to 300 cells/sample are scored for apoptotic changes (peripheral chromatin condensed or nuclear fragmentation) as described in Svingen et al., Clin. Cancer Res. 6, 237-49 (2000).
Under (c) in Table (A), K562 cells are incubated with the concentration indicated in the subsequent table in the presence of diluent or 10 μmol/l STI 571, fixed, and examined for apoptotic morphological changes.

The subject of the next data set is CML CFU-G. Nature of the data set: Granulocyte colony formation of circulating mononuclear cells from CML patients (CFU-G / CFU-GM). The class given is cell-based, human. Conditions: for Number of colonies (% of control): (d) Pt. #30 CFU-GM, 24 h; for IC50: Homo sapiens, CFU-GM, linear regression. The method, then:
Clinical samples are studied under the aegis of a protocol approved by the Institutional Review Board of the Mayo Clinic in accordance with the policies of the US Department of Health and Human Services. […] CML CFU-G, 10 mL of peripheral blood is drawn from normal volunteers and consenting patients with previously untreated chronic phase CML using EDTA as an anticoagulant. […] At the completion of the incubation, samples are sedimented at 200×g for 10 min, resuspended at a concentration of 1×10^6/ml in medium C containing 50 ng/mL G-CSF, plated in 0.3% agar, and incubated for 7-8 d. Colonies containing […] are counted on an inverted phase contrast microscope.

The conditions of data set [4]: compared with AG957; Svingen et al.; cited from earlier work.

As to `COC(=O)c1ccc(NCc2cc(O)ccc2O)cc1` [AG957], in data set [1], the serum half-life entry is on record as “very short”. For the same molecule, the “p210^bcr/abl activity” value in the data set with p210^bcr/abl is given as “inhibit”.
On to `O=C(OC12CC3CC(CC(C3)C1)C2)c1ccc(NCc2cc(O)ccc2O)cc1` [Adaphostin, 4-{[(2,5-dihydroxyphenyl)methyl]amino}-benzoic acid adamantyl ester], for which the “Number of colonies (% of control)” value in the data set with K562 cells [2] ((a) adaphostin 2.5 μmol/l without STI571) is reported as 56 ± 4 % of control; with K562 cells [2] ((a) adaphostin 5.1 μmol/l without STI571), 46 ± 4 % of control; with K562 cells [2] ((a) adaphostin 7.7 μmol/l without STI571), 27 ± 4 % of control; with K562 cells [2] ((a) adaphostin 10.2 μmol/l without STI571) it was 10 ± 1 % of control; in the data set with K562 cells [2] ((b) adaphostin 5.2 μmol/l, STI571 0), 35 ± 3 % of control; in the data set with CML CFU-G (adaphostin 3.2 μmol/l without STI571) it was 93 ± 1.9 % of control. Further, the “Number of colonies (% of control)” value is 71 ± 2.2 % of control with CML CFU-G (adaphostin 6.4 μmol/l without STI571), 55 ± 2.5 % of control in the data set on CML CFU-G (adaphostin 12.7 μmol/l without STI571), 40 ± 1.2 % of control in the data set with CML CFU-G (adaphostin 15.9 μmol/l without STI571) and 18 ± 0.7 % of control in the data set with CML CFU-G (adaphostin 19.1 μmol/l without STI571). The “Apoptosis (% of total cells)” value with K562 cells [3] ((c) adaphostin 0.62 μmol/l without STI571) is 2.1 % of total cells; in the data set with K562 cells [3] ((c) adaphostin 1.25 μmol/l without STI571) it was 10.9 % of total cells; in the data set with K562 cells [3] ((c) adaphostin 2.50 μmol/l without STI571), 41.8 % of total cells; in the data set with K562 cells [3] ((c) adaphostin 3.75 μmol/l without STI571), 62.8 % of total cells; in the data set with K562 cells [3] ((c) adaphostin 5.00 μmol/l without STI571), 84.1 % of total cells. Besides, the IC50 with CML CFU-G (read-out: IC50 for Adaphostin in presence of 20 μmol/l STI571, CFU-GM, patient number 28) turned out to be 5 µM; in the data set on CML CFU-G (read-out: IC50 for Adaphostin in presence of 20 μmol/l STI571, CFU-GM, patient number 29) it was 14 µM; in the data set with CML CFU-G (read-out: IC50 for Adaphostin in presence of 20 μmol/l STI571, CFU-GM, patient number 30), 8.5 µM; in the data set with CML CFU-G (read-out: IC50 for Adaphostin in presence of 20 μmol/l STI571, CFU-GM, patient number 31), 10 µM; with CML CFU-G (read-out: IC50 for Adaphostin in presence of 20 μmol/l STI571, CFU-GM, patient number 33) it was 16 µM; in the data set on CML CFU-G (read-out: IC50 for Adaphostin in presence of 20 μmol/l STI571, CFU-GM, patient number 34), 3.5 µM. In addition, the IC50 in the data set on CML CFU-G (read-out: IC50 for Adaphostin without STI571, CFU-GM, patient number 28) was 13 µM; with CML CFU-G (read-out: IC50 for Adaphostin without STI571, CFU-GM, patient number 29), over 20 µM; in the data set on CML CFU-G (read-out: IC50 for Adaphostin without STI571, CFU-GM, patient number 30), 13.5 µM; with CML CFU-G (read-out: IC50 for Adaphostin without STI571, CFU-GM, patient number 31), 8.5 µM; with CML CFU-G (read-out: IC50 for Adaphostin without STI571, CFU-GM, patient number 33), 23 µM; in the data set on CML CFU-G (read-out: IC50 for Adaphostin without STI571, CFU-GM, patient number 34), 11 µM. Further, the serum half-life result in data set [1] is reported as “longer”. The potency in vitro entry in data set [4] was “higher”.
In the case of `Cc1ccc(NC(=O)c2ccc(CN3CCN(C)CC3)cc2)cc1Nc1nccc(-c2cccnc2)n1` [STI571, N-{5-[4-(4-methyl-piperazino-methyl)-benzoylamido]-2-methylphenyl}-4-(3-pyridyl)-2-pyrimidine-amine], the “Apoptosis (% of total cells)” value with K562 cells [3] ((c) STI571 10 μmol/l, adaphostin 0) is 12.9 % of total cells.
